IC50 data for 35 compounds are collected here from patent US11613545B2, “Macrocyclic compound serving as Wee1 inhibitor and applications thereof” (WUXI BIOCITY BIOPHARMACEUTICS CO., LTD., priority 2017, dated 2023).

The target in the assay is T1, Wee1 (Homo sapiens, UniProt P30291).
T1 construct: purchased Eurofins
The assay can be described thus: In vitro enzymatic inhibitory activity, Wee1 kinase (Eurofins, [γ-33P]-ATP filter assay). Particulars: 10 μM [γ-33P]-ATP, 40 min at room temperature. The format is biochemical. As to the method:
The experimental tests were conducted at Eurofins, and the results were provided by the company.
After adding the mixed solution of Mg^2+ and ATP, the reaction started and the reaction solution was incubated at room temperature for 40 min. 3% phosphate buffer was added to stop the reaction. 10 μL of the reaction solution was filtered on a continuous filter P30, washed three times with 75 mM phosphate buffer, once with methanol, and 5 minutes each time. After drying, the value was read by scintillation counting method.

T1 sequence (P30291 whole entry): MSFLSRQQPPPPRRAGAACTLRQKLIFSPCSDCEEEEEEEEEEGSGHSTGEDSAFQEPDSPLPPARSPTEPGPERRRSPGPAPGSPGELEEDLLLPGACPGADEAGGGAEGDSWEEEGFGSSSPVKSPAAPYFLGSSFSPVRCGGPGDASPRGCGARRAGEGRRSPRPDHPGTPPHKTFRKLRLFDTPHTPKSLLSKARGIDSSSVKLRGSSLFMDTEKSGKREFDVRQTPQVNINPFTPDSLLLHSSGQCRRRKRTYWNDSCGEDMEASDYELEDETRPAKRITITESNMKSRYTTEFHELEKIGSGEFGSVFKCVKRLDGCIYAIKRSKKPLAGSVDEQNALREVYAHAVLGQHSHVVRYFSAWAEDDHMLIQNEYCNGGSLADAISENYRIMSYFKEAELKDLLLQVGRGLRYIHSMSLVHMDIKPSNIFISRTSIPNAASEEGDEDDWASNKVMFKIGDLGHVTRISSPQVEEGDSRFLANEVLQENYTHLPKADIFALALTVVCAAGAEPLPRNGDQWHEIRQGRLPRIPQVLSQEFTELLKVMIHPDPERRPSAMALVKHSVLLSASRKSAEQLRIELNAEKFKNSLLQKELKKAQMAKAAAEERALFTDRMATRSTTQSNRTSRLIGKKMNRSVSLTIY

With `CN1CCCN(c2ccc(Nc3ncc4c(=O)n5n(c4n3)-c3cccc(n3)[C@](C)(O)CC/C=C\C5)cc2)CC1` [Compound 37], 31 nM corresponded to half-maximal inhibition (IC50).
`CC1(O)CC/C=C\Cn2c(=O)c3cnc(Nc4ccc(N5CCCNCC5)cc4)nc3n2-c2cccc1n2` (centres unmarked) [Compound 11] registered an IC50 of 102 nM. This IC50 is about 3.3-fold higher than that of the compound before.
The compound `CN(C)CCOc1cccc(Nc2ncc3c(=O)n4n(c3n2)-c2cccc(n2)[C@](C)(O)CC/C=C\C4)c1` [Compound 36] had an IC50 of 35 nM.
Regarding `CN1CCN(c2ccc(Nc3ncc4c(=O)n5n(c4n3)-c3cccc(n3)[C@](C)(O)CC/C=C\C5)cc2CO)CC1` [Compound 22], half-maximal inhibition (IC50) required 16 nM.
The compound `C[C@@]1(O)CC/C=C\Cn2c(=O)c3cnc(Nc4ccc(Cl)cc4)nc3n2-c2cccc1n2` [Compound 39] yielded an IC50 of 54 nM.
`COc1cccc(Nc2ncc3c(=O)n4n(c3n2)-c2cccc(n2)[C@@](C)(O)CC/C=C\C4)c1` [Compound 17] showed an IC50 of 366 nM.
Compound `CN(C)CCOc1ccc(Nc2ncc3c(=O)n4n(c3n2)-c2cccc(n2)[C@@](C)(O)CC/C=C\C4)cc1` [Compound 19] gave an IC50 of 72 nM. This IC50 lies about 5.1-fold lower than the previous one.
`CN1CCN(c2cccc(Nc3ncc4c(=O)n5n(c4n3)-c3cccc(n3)[C@](C)(O)CC/C=C\C5)c2)CC1` [Compound 34] came in with an IC50 of 116 nM.
On to `CN1CCc2ccc(Nc3ncc4c(=O)n5n(c4n3)-c3cccc(n3)[C@](C)(O)CC/C=C\C5)cc2C1` [Compound 26], for which the IC50 came to 30 nM.
For `CN1CCc2ccc(Nc3ncc4c(=O)n5n(c4n3)-c3cccc(n3)[C@@](C)(O)CC/C=C\C5)cc2C1` [Compound 27], inhibition was half-maximal at 37 nM (IC50).
As for `CN1CC2CN(c3ccc(Nc4ncc5c(=O)n6n(c5n4)-c4cccc(n4)[C@](C)(O)CC/C=C\C6)cc3)CC2C1` (some centres unmarked) [Compound 24], the IC50 came to 57 nM.
With `CN1CCC2(CC1)CCN(c1ccc(Nc3ncc4c(=O)n5n(c4n3)-c3cccc(n3)C(C)(O)CC/C=C\C5)cc1)CC2` (centres unmarked) [Compound 7], the IC50 was 54 nM.
To `C[C@@]1(O)CC/C=C\Cn2c(=O)c3cnc(Nc4ccc(OC5CC5)cc4)nc3n2-c2cccc1n2` [Compound 40] belongs 35 nM.
`COc1cccc(Nc2ncc3c(=O)n4n(c3n2)-c2cccc(n2)[C@](C)(O)CC/C=C\C4)c1` [Compound 16] came in with an IC50 of 60 nM.
To `C[C@]1(O)CC/C=C\Cn2c(=O)c3cnc(Nc4ccccc4)nc3n2-c2cccc1n2` [Compound 13] belongs 265 nM.
Compound `C[C@]1(O)CC/C=C\Cn2c(=O)c3cnc(Nc4ccc(N5CCOCC5)cc4)nc3n2-c2cccc1n2` [Compound 33] came in with an IC50 of 151 nM. Against the preceding compound, the IC50 is about 1.8-fold lower.
Turning to `CN(C)C1CCN(c2ccc(Nc3ncc4c(=O)n5n(c4n3)-c3cccc(n3)C(C)(O)CC/C=C\C5)cc2)CC1` (centres unmarked) [Compound 9], the IC50 came out at 41 nM.
To `CN(C)CCOc1ccc(Nc2ncc3c(=O)n4n(c3n2)-c2cccc(n2)[C@](C)(O)CC/C=C\C4)cc1` [Compound 18] belongs 29 nM; to `CN1CCC(c2ccc(Nc3ncc4c(=O)n5n(c4n3)-c3cccc(n3)[C@](C)(O)CC/C=C\C5)cc2)CC1` [Compound 20], 173 nM; to `CN1CCCN(c2ccc(Nc3ncc4c(=O)n5n(c4n3)-c3cccc(n3)C(C)(O)CC/C=C\C5)cc2)CC1` (centres unmarked) [Compound 10], 49 nM.
Consider `CN(C)C1CCN(c2ccc(Nc3ncc4c(=O)n5n(c4n3)-c3cccc(n3)[C@](C)(O)CC/C=C\C5)cc2)CC1` [Compound 38], for which the IC50 was determined as 48 nM.
Turning to `C[C@]1(O)CC/C=C\Cn2c(=O)c3cnc(Nc4ccc(F)cc4)nc3n2-c2cccc1n2` [Compound 31], the IC50 is 323 nM.
To `CN1CC2CN(c3ccc(Nc4ncc5c(=O)n6n(c5n4)-c4cccc(n4)[C@@](C)(O)CC/C=C\C6)cc3)CC2C1` (some centres unmarked) [Compound 25] belongs 78 nM; to `COCc1cc(Nc2ncc3c(=O)n4n(c3n2)-c2cccc(n2)[C@](C)(O)CC/C=C\C4)ccc1N1CCN(C)CC1` [Compound 23], 29 nM.
`C[C@]1(O)CC/C=C\Cn2c(=O)c3cnc(Nc4cccc(F)c4)nc3n2-c2cccc1n2` [Compound 29] returned an IC50 of 444 nM. This IC50 is about 15-fold higher than that of the compound before.
Take `CC1(O)CC/C=C\Cn2c(=O)c3cnc(Nc4ccc(N5CCC(F)(F)CC5)cc4)nc3n2-c2cccc1n2` (centres unmarked) [Compound 3]: the midpoint of inhibition, the IC50, lay at 42 nM.
`C[C@@]1(O)CC/C=C\Cn2c(=O)c3cnc(Nc4ccc(N5CCOCC5)cc4)nc3n2-c2cccc1n2` [Compound 32]: half-maximal inhibition (IC50) was put at 37 nM.
Compound `C[C@@]1(O)CC/C=C\Cn2c(=O)c3cnc(Nc4ccc(F)cc4)nc3n2-c2cccc1n2` [Compound 30] came in with an IC50 of 67 nM.
`CN(C)CCOc1cccc(Nc2ncc3c(=O)n4n(c3n2)-c2cccc(n2)[C@@](C)(O)CC/C=C\C4)c1` [Compound 42] showed an IC50 of 221 nM.
On to `CN1CCN(c2cccc(Nc3ncc4c(=O)n5n(c4n3)-c3cccc(n3)[C@@](C)(O)CC/C=C\C5)c2)CC1` [Compound 35], for which half-maximal inhibition (IC50) was put at 276 nM. The IC50 values of the last two compounds are within 1.5-fold of each other.
`C[C@@]1(O)CC/C=C\Cn2c(=O)c3cnc(Nc4ccc(N5CCC(F)(F)CC5)cc4)nc3n2-c2cccc1n2` [Compound 41] displayed an IC50 of 16 nM.
For the compound `C[C@@]1(O)CC/C=C\Cn2c(=O)c3cnc(Nc4cccc(F)c4)nc3n2-c2cccc1n2` [Compound 28], it took 79 nM to reach half-maximal inhibition (IC50).
`C[C@@]1(O)CC/C=C\Cn2c(=O)c3cnc(Nc4ccccc4)nc3n2-c2cccc1n2` [Compound 12] had an IC50 of 59 nM. The IC50 values of the last two compounds are within 1.5-fold of each other.
As to `CC1(O)CC/C=C\Cn2c(=O)c3cnc(Nc4ccc(N5CCNCC5)cc4)nc3n2-c2cccc1n2` (centres unmarked) [Compound 6], half-maximal inhibition (IC50) was put at 46 nM. This IC50 and that of the compound before are within 1.5-fold of each other.
The compound `CN1CCC(c2ccc(Nc3ncc4c(=O)n5n(c4n3)-c3cccc(n3)[C@@](C)(O)CC/C=C\C5)cc2)CC1` [Compound 21] displayed an IC50 of 280 nM. Compared with the last compound, the IC50 is about 6.1-fold higher.

Broadly, the IC50 is the concentration that inhibits the measured activity by half. Higher therefore signals lower potency.
